SMILES strings stand for the structures. A value given as a limit tells only on which side of the number the result lay.

For orientation: IC50 means the point on the concentration scale where inhibition reaches its midpoint.

The target of the first test is T1, AAK1 (full length human) in transfected HEK293F cells (Homo sapiens, UniProt Q2M2I8).
T1 construct: expressed in transfected cells; host or cells: HEK293F
T1 sequence (Q2M2I8 1-863 isoform Q2M2I8-2): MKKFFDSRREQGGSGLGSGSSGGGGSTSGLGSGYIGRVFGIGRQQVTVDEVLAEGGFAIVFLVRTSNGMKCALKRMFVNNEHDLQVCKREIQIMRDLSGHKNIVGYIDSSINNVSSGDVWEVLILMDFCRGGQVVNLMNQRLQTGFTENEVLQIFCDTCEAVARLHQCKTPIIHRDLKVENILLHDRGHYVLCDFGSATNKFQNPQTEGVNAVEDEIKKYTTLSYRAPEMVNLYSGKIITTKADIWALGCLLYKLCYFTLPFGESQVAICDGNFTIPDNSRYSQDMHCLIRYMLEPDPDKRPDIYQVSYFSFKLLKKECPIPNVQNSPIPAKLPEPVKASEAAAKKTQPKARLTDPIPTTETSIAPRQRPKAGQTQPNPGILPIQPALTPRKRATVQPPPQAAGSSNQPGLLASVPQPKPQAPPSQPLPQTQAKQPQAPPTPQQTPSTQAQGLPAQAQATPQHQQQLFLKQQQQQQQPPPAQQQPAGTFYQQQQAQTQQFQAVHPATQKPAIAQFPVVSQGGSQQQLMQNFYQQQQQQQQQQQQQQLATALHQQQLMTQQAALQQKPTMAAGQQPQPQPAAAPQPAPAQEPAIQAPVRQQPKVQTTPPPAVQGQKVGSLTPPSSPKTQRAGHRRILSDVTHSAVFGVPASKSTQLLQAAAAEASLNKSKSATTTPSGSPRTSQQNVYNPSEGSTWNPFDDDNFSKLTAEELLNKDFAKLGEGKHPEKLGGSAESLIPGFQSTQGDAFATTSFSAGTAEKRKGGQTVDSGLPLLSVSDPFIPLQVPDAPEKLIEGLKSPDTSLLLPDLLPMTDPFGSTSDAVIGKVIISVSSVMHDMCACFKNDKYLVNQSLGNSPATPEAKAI
Nature of the test: HEK281 cell-based assay (phospho-mu2 Western blot). The note with it: HEK281 cell-based assay, Table 1 imidazo[1,2-b]pyridazines; read-out: CBA IC50. The protocol: HEK293F cells were cultured in media containing DMEM (Gibco, cat. #11965), 10% FBS (SAFC Biosciences, cat. #12103C), 1×GPS (glutamine, penicillin and streptomycin). On day one, cells were plated on a 10 cm dish so that they are ˜80% confluent at time of transfection. Roughly 12 million cells were in a 10 cm dish at time of transfection. On day two, each dish was transfected with 48 ug DNA and 144 ul Lipofectamine 2000 (Invitrogen, cat.#11668-019). The DNA was comprised of a mixture (per 10 cm dish) containing 3 ug AAK1/HA/pIRES (full length human, NCBI accession no. NP_055726.2), 45 μg Flag/AP2MI/pcDNA (full length human), and 1.5 ml OPTI-MEM. The Lipofectamine 2000 is made up of a mixture (per 10 cm dish) containing 144 μl Lipofectamine 2000 and 1.5 ml OPTI-MEM. Each mixture was transferred to individual 15 ml tubes and incubated at RT for 5 minutes, and then the two mixes were combined and incubated at RT for 20 minutes. Growth media was then aspirated from each 10 cm plate and replaced with 10 ml of DMEM+10% FBS (no GPS). Finally, 3 ml DNA/Lipofectamine mix was added to each 10 cm dish and mix gently followed by incubate of plate overnight at 37° C. and 5% CO2.
On day three, compounds were diluted in 100% DMSO at 1000× final concentration, followed by 3-fold serial dilutions for a total of 5 concentrations tested. Four compounds were tested per 10 cm dish. One ul of each compound dilution was then pipetted into a deep-well, 96-well plate, followed by addition of 500 μl DMEM+0.5% FBS into each well for a 2× final concentration of each compound. Cells were resuspended in a 10 cm dish by simple pipetting (HEK293 cells come off the plate that easy at this point) and then transferred to a 50 ml conical tube and pelleted by centrifugation at 1000 rpm for 5 min. Cell pellets were then resuspended in 2.75 ml DMEM+0.5% FBS per 10 cm dish and 100 μl of cell suspension transferred into each well of 96-well TC plate. Finally, 100 μl of 2× compound diluted in DMEM+0.5% FBS was then added into wells containing cell suspension for a 1× final concentration. Plates were then incubated at 37° C. and 5% CO2 for 3 hours followed by transferring of cell suspensions from each well into 12-tube PCR strips. The PCR strips were spun in a tip rack at 1000 rpm for 5 minutes to pellet cells and media was then removed by pipetting without disturbing the cell pellet.
To prepare for Western Blot analysis, cell pellets were resuspend in 40 ul 1×LDS-PAGE sample buffer (Invitrogen, cat.# NP0008)+2× Halt phophatase and protease inhibitor cocktail (Thermo Scientific, cat.#1861284), followed by sonicating each with microtip sonicator set at 5 for 8-10 seconds. Five ul of 10× NuPage Sample Reducing Agent (with […]) was to each sample followed by heat denaturing at 70 C. for 10 min on PCR machine. A total of 10 μl per sample was loaded into each lane of a 4-20% Tris-Glycine Criterion 26-well gel (Biorad, cat.#345-0034) for the phospho-mu2 blot and 10 μl per lane in a 4-12% Bis-Tris (+MES buffer) NuPAGE 26-well gel (Invitrogen, cat.# WG1403BX10) for the mu2 blot. For controls, 2 ng of phospho-mu2 or 20 ng mu2/Flag proteins were loaded in the last well of each gel. After SDS-PAGE, samples on each gel were transferred to PVDF membrane using an iBlot and membranes were blocked for one hour in TBST+5% milk, followed by wash 3× for 5-10 min with TBST. Criterion gels were probed with rabbit anti-phospho-mu2 (1:5000; a rabbit polyclonal antibody produced by New England Peptide and affinity purified at Lexicon) in TBST+5% BSA, whereas, NuPAGE gels were probed with mouse anti-Flag (1:500; Sigma, cat.# F1804) in TBST+5% milk, and these primary antibodies were incubated overnight at 4° C. on a rocker.
For `COc1cnccc1-c1cnc2ccc(-c3cccc(C(=O)CCC(C)C)c3)nn12`, the IC50 is not above 100 nM.

`CC(C)CCC(=O)c1cccc(-c2ccc3ncc(-c4ccc(CN)cc4)n3n2)c1`: the IC50 was not above 100 nM.

Consider `CC(=O)c1cccc(-c2ccc3ncc(-c4ccc(CN)cc4)n3n2)c1`, for which the IC50 was not above 100 nM.

As to `CC(C)CNC(=O)c1cccc(-c2ccc3ncc(-c4ccc(CN)cc4)n3n2)c1`, the IC50 is not above 100 nM.

In the case of `CCCCNc1ccc2ncc(-c3ccc(CN)c(F)c3)n2n1`, the IC50 was not above 1000 nM.

With `NCc1ccc(-c2cnc3ccc(NCC4CCCCC4)nn23)cc1`, the IC50 is not above 1000 nM.

Consider `CN(C)CCOCc1ccc(-c2cnc3ccc(NCCC(C)(C)C)nn23)cc1`, for which the IC50 is not above 100 nM.

Regarding `CC(C)(C)OCCNc1ccc2ncc(-c3ccc(C(N)=O)cc3)n2n1`, the IC50 is not above 100 nM.

Take `COc1cccc(CCNc2ccc3ncc(-c4ccc(C(N)=O)cc4)n3n2)c1`: the IC50 is not above 100 nM.

With `CC(C)CNC(=O)c1cncc(-c2ccc3ncc(-c4ccc(CN)cc4)n3n2)c1`, the half-maximal inhibitory concentration (IC50) is not above 100 nM.

On to `CCCCNc1ccc2ncc(C(=O)Nc3ccc(C(=O)NCCN(C)C)cc3)n2n1`, for which the half-maximal inhibitory concentration (IC50) is not above 100 nM.

Turning to `COc1cnccc1-c1cnc2ccc(-c3cccc(C(=O)NCC(C)C)c3)nn12`, the IC50 was not above 100 nM.

`CNC(=O)c1ccc(-c2cnc3ccc(-c4cccc(C(=O)NCC(C)C)c4)nn23)cc1`: the IC50 is not above 100 nM.

Consider `CC(C)NC(=O)N1CCN(c2ccc3ncc(-c4ccccc4)n3n2)CC1`, for which the IC50 is not above 100 nM.

With `CCCCSc1ccc2ncc(-c3ccc(CN)cc3)n2n1`, the concentration for half-maximal inhibition (IC50) was not above 1000 nM.

Take `CC(C)OC(=O)N1CCC[C@H]1CNc1ccc2ncc(Cl)n2n1`: the IC50 is not above 100 nM.

Regarding `CC(C)(C)OC(=O)N1CCC[C@H]1CCNc1ccc2ncc(-c3ccc(CN)cc3)n2n1`, the IC50 was not above 100 nM.

Turning to `CN(CCNc1ccc2ncc(-c3ccc(C#N)cc3)n2n1)C(=O)OC(C)(C)C`, the IC50 was not above 100 nM.

For `CN(CCNc1ccc2ncc(-c3ccccc3)n2n1)C(=O)OC(C)(C)C`, the IC50 was not above 100 nM.

The same test, now with this note: HEK281 cell-based assay; pyrazolo[1,5-a]pyrimidine-based inhibitors; read-out: CBA IC50.
In the case of `COc1ncccc1-c1cnn2ccc(N3CCN(C(=O)CC(C)C)CC3)nc12`, the concentration for half-maximal inhibition (IC50) is not above 100 nM.

Regarding `COCCOC(=O)N1CCN(c2ccn3ncc(-c4cccnc4OC)c3n2)CC1`, the IC50 is not above 100 nM.

Consider `COc1cnccc1-c1cnn2ccc(NCCc3ccccc3OC(F)(F)F)nc12`, for which the IC50 is not above 10 nM.

Take `NCc1ccc(-c2cnn3ccc(NCCOC4CCCC4)nc23)cc1`: the IC50 is not above 100 nM.

Consider `CC(C)(C)COCCNc1ccn2ncc(-c3ccc(CN)cc3)c2n1`, for which the IC50 is not above 100 nM.

In the case of `CC(C)(C)OCCNc1ccn2ncc(-c3ccc(CN)cc3)c2n1`, the IC50 was not above 100 nM.

Take `NCc1ccc(-c2cnn3ccc(NCCc4ccccc4OC(F)(F)F)nc23)cc1`: the IC50 is not above 10 nM.

`COCCNc1ccn2ncc(-c3ccc(CN)cc3)c2n1`: the IC50 is not above 100 nM.

Regarding `NCc1ccc(-c2cnn3ccc(NCCCOC4CCCC4)nc23)cc1`, the IC50 is not above 100 nM.

For `CCCCNc1ccn2ncc(-c3ccc(CN)cc3)c2n1`, the IC50 was not above 100 nM.

On to `COc1ccncc1-c1cnn2ccc(NCCc3ccccc3OC(F)(F)F)nc12`, for which the IC50 is not above 100 nM.

For the compound `Brc1cnn2ccc(NCCCOC3CCCC3)nc12`, the IC50 is not above 1000 nM.

As to `CCCCNc1ccn2ncc(-c3ccc(C(=O)NCCNC)cc3)c2n1`, the IC50 is not above 100 nM.

On to `COc1cnccc1-c1cnn2ccc(NCCOC3CCCC3)nc12`, for which the IC50 is not above 100 nM.

With `COc1cnccc1-c1cnn2ccc(NCCOC(C)(C)C)nc12`, the IC50 was not above 100 nM.

Consider `COCCNc1ccn2ncc(-c3ccc(C(=O)NCCN)cc3)c2n1`, for which the IC50 was not above 1000 nM.

For the compound `CC(C)(C)CCNc1ccn2ncc(-c3ccc(C(=O)NCCN)cc3)c2n1`, the IC50 is not above 1000 nM.

Regarding `CCCCNc1ccn2ncc(-c3ccc(C(=O)NCCN)cc3)c2n1`, the IC50 was not above 100 nM.

With `COCCNc1ccn2ncc(-c3ccccc3)c2n1`, the IC50 was not above 1000 nM.

With `COc1cnccc1-c1cnn2ccc(NCCCOC3CCCC3)nc12`, the IC50 was not above 100 nM.

For the compound `COc1ccccc1-c1cnn2ccc(NC[C@@H]3CCCN3C(=O)NC(C)(C)C)nc12`, the IC50 is not above 100 nM.

In the case of `CCc1ccccc1-c1cnn2ccc(NC[C@@H]3CCCN3C(=O)OC(C)(C)C)nc12`, the IC50 is not above 100 nM.

`CC(C)(C)OC(=O)N1CCC[C@H]1CNc1ccn2ncc(-c3ccc(C(N)=O)cc3)c2n1`: the IC50 is not above 1000 nM.

On to `CC(C)(C)OC(=O)N1CCC[C@H]1CNc1ccn2ncc(C(F)(F)F)c2n1`, for which the IC50 is not above 100 nM.

As to `CC(C)(C)OC(=O)N1CCC[C@H]1CNc1ccn2ncc(I)c2n1`, the concentration for half-maximal inhibition (IC50) was not above 100 nM.

For `CC(C)(C)OC(=O)N1CCC[C@H]1CNc1ccn2ncc(-c3ccccc3)c2n1`, the 50% inhibitory concentration (IC50) is not above 100 nM.

`CCOC(=O)N(C)CCNc1ccn2ncc(-c3ccc(C(=O)NC)cc3)c2n1`: the IC50 is not above 100 nM.

As for `CNC(=O)c1ccc(-c2cnn3ccc(NCCN(C)C(=O)OCC(C)C)nc23)cc1`, the IC50 is not above 1000 nM.

Turning to `CC(C)OC(=O)N1CCN(c2ccn3ncc(-c4cccn(C)c4=O)c3n2)CC1`, the IC50 is not above 100 nM.

Take `CCOc1ncccc1-c1cnn2ccc(N3CCN(C(=O)OC(C)C)CC3)nc12`: the IC50 was not above 100 nM.

With `CC(C)OC(=O)N1CCN(c2ccn3ncc(-c4cccnc4F)c3n2)CC1`, the 50% inhibitory concentration (IC50) is not above 100 nM.

Turning to `COc1nc(C)ccc1-c1cnn2ccc(N3CCN(C(=O)OC(C)C)CC3)nc12`, the IC50 is not above 100 nM.

For the compound `COc1cnccc1-c1cnn2ccc(N3CCN(C(=O)OC(C)C)CC3)nc12`, the IC50 was not above 100 nM.

`COc1ncc(F)cc1-c1cnn2ccc(N3CCN(C(=O)OC(C)C)CC3)nc12`: the IC50 is not above 100 nM.

Take `COc1cnccc1-c1cnn2ccc(NCCN(C)C(=O)OC(C)C)nc12`: the IC50 is not above 10 nM.

As to `CC(C)OC(=O)N(C)CCNc1ccn2ncc(-c3ccc(CN)cc3)c2n1`, the IC50 is not above 100 nM.

As to `CC(C)OC(=O)N(C)CCNc1ccn2ncc(-c3ccc(C(N)=O)cc3)c2n1`, the IC50 is not above 10 nM.

Turning to `COc1ccncc1-c1cnn2ccc(NCCN(C)C(=O)OC(C)C)nc12`, the concentration for half-maximal inhibition (IC50) is not above 100 nM.

For the compound `CNCCNC(=O)c1ccc(-c2cnn3ccc(NCCN(C)C(=O)OC(C)C)nc23)cc1`, the IC50 is not above 100 nM.

As for `CNC(=O)c1ccc(-c2cnn3ccc(NCCN(C)C(=O)OC(C)C)nc23)cc1`, the IC50 is not above 10 nM.

In the case of `CC(C)OC(=O)N(C)CCNc1ccn2ncc(-c3ccc(C4CCCN4)cc3)c2n1` (stereo not shown), the half-inhibitory concentration (IC50) was not above 10 nM.

Regarding `COCCNc1ccn2ncc(-c3ccc(C(=O)NCCNC(=O)OC(C)(C)C)cc3)c2n1`, the IC50 was not above 1000 nM.

For `COc1cnccc1-c1cnn2ccc(NCCN(C)C(=O)OC(C)(C)C)nc12`, the IC50 was not above 10 nM.

`CN(CCNc1ccn2ncc(-c3ccc(C(N)=O)cc3)c2n1)C(=O)OC(C)(C)C`: the IC50 was not above 10 nM.

As for `CNC(=O)c1ccc(-c2cnn3ccc(NCCN(C)C(=O)OC(C)(C)C)nc23)cc1`, the IC50 was not above 10 nM.
